“Also recorded” adds a separate entry of the source.
Experiments:
MX1 tumor xenografts = MX1 tumor xenografts in nude mice; type: in vivo; details: Sixty three mg/kg
Protocol: Dysidiolide inhibited the growth of MX1 tumor xenografts in nude mice. Sixty three mg/kg dysidiolide inhibited (A) tumor growth by 70% while (B) animal weight (and indication of overall toxicity) remained higher than 90% of controls.
Therapeutic Effects of Dysidiolide and Taxol in Nude Mice bearing MX-1. MX-1 cell 50 μg was implanted s.c. on day 0. Every other day i.v. treatments were given on day 3,5,7,9 and 11. The average tumor volume of control group on day 3, 7, 9, 11 and 13 were 62, 75, 113, 155 and 264 mm^3, respectively. Solvents: Dysidiolide [20-40 μl DMSO+100 μl (Cremophor: EtOH=1:1)+Saline] Taxol [Clinical use (Cremophor+EtOH=1:1)+Saline].

[1] = tested on: TSU-Pr1, PC3 and DU145 human prostrate cancer cells; experiment: apoptosis by FACS detection of fragmented DNA; type: cell-based; details: 24 hours
Protocol: Cells containing fragmented DNA content were detected as the M1 (subG1) region on DNA content plots.
Effects of dysidiolide at the cellular level. Dysidiolide was cytotoxic to several human tumor cell lines. […] (A) Human tumor cells were treated for 24 hours in the presence of various concentrations of dysidiolide or DMSO vehicle. Cells were analyzed by FACS and the percentage of cells bearing less than the 2 n DNA complement was determined. (B) Immunofluorescence micrographs of TSU-Pr1 human prostrate cancer cells untreated or treated for 6 hours with 2-50 μM dysidiolide.

[2] = tested on: p21, p27, cyclin D1 and cyclin E; experiment: steady-state levels of other cell cycle regulators in MCF7 cells; type: cell-based, human; details: 50 μM, 24 hr
Protocol: (A) Effect of 50 μM dysidiolide on the steady-state levels of Cdc25 A and C, and of other cell cycle regulators in MCF7 cells after a 24 hr treatment.

[3] = molecular target: T1, human cdc25A protein phosphatase (Homo sapiens, UniProt P30304); details: cited from earlier work
T1 sequence (P30304 1-524): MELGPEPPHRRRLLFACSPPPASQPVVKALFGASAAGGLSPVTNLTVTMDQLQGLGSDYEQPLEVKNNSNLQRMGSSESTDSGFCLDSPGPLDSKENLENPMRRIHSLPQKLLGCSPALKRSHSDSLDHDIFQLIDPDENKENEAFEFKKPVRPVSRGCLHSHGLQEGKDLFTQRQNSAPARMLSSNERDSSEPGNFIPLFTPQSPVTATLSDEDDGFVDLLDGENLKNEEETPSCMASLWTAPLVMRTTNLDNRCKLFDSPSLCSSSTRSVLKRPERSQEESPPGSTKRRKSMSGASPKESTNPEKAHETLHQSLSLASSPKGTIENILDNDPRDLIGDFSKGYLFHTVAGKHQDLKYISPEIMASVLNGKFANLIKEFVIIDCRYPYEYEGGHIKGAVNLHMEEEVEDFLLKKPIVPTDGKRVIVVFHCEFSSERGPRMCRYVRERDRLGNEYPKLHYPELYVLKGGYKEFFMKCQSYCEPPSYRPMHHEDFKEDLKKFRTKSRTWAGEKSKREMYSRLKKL

## C=C(C)CCC[C@@]1(C)CCC[C@H]2C1=CC[C@H](C)[C@]2(C)C[C@H](O)C1=CC(=O)O[C@@H]1O (racemic) [dysidiolide]
MX1 tumor xenografts
  animal weight (indication of overall toxicity): higher than 90 % of controls
  tumor growth inhibition: 70%
[1]
  apoptosis: massive apoptosis; also recorded: induced apoptotic cell death
[2]
  levels of p21, p27, cyclin D1 and cyclin E: reduced levels
[3]
  inhibition of human cdc25A protein phosphatase: potent inhibitor

— US6482851B1, “Synthesis of dysidiolide and uses thereof” (Sloan-Kettering Institute for Cancer Research, priority 1998, dated 2002)
